In ChEMBL document CHEMBL1143642, “Preparation of 3-spirocyclic indolin-2-ones as ligands for the ORL-1 receptor” (Bioorg Med Chem Lett, 2005) one finds IC50 and inhibition data, which are given here for 24 molecules.

Each structure is given as a SMILES string.

Holding throughout (type): cell-based
Assay [1] deals with T1, Nociceptin receptor (Homo sapiens, UniProt P41146). Briefly: Binding affinity determined by the ability to compete with [125I]-Tyr14- nociceptin from binding to human opiate receptor-like 1 expressed in HEK293 cells.
T1 sequence (P41146 whole entry): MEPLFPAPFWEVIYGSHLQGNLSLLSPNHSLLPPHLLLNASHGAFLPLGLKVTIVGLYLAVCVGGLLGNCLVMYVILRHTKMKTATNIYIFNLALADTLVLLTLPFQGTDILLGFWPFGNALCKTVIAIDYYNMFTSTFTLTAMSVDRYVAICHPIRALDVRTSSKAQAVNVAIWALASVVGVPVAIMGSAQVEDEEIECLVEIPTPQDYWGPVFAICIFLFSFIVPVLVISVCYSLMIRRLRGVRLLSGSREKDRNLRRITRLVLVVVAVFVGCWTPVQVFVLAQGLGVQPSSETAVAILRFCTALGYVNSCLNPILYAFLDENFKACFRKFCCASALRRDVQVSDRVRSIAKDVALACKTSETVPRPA
Assay [2] concerns the target Delta-type opioid receptor (Homo sapiens, UniProt P41143). In words: Binding affinity against human opioid receptor delta 1 expressed in HEK293 cells using [3H]DDPDE radioligand.
Assay [3] has as its target T1, Nociceptin receptor. Briefly: Ability to inhibit calcium flux in HEK293 cells overexpresses human opiate receptor-like 1 in the presence of 100 nM nociceptin. Background: Calcium assays in cells follow changes in intracellular calcium, usually with a dye or a luminescent sensor.
For assay [4], the target named is Kappa-type opioid receptor (Homo sapiens, UniProt P41145). In words: Binding affinity against human opioid receptor kappa 1 expressed in HEK293 cells using 3H-U69,593 radioligand.
Chain of Kappa-type opioid receptor (P41145 whole entry): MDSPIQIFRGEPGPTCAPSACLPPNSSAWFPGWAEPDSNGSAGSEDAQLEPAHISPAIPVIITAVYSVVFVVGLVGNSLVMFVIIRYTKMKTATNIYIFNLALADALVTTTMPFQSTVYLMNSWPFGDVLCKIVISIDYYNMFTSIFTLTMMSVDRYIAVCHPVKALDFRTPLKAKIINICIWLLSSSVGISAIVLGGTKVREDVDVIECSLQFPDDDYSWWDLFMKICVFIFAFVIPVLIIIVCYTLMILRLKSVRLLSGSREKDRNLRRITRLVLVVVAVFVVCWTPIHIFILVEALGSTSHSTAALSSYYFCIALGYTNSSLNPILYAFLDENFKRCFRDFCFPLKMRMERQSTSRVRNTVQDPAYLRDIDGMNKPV
A further assay concerns the target Mu-type opioid receptor (Homo sapiens, UniProt P35372). In words: Binding affinity against human opioid receptor mu 1 expressed in HEK293 cells using [3H]DAMGO radioligand.

Chain of Delta-type opioid receptor (P41143 whole entry): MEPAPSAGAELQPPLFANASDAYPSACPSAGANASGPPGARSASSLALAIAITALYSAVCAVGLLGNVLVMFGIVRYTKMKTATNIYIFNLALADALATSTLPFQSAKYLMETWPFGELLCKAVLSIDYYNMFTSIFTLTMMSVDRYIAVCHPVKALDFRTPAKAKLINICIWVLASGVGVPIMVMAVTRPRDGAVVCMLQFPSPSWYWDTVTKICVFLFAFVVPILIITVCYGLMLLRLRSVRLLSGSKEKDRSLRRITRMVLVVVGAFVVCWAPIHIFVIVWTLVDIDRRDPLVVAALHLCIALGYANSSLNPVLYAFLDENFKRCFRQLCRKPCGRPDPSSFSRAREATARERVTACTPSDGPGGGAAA
Chain of Mu-type opioid receptor (P35372 whole entry): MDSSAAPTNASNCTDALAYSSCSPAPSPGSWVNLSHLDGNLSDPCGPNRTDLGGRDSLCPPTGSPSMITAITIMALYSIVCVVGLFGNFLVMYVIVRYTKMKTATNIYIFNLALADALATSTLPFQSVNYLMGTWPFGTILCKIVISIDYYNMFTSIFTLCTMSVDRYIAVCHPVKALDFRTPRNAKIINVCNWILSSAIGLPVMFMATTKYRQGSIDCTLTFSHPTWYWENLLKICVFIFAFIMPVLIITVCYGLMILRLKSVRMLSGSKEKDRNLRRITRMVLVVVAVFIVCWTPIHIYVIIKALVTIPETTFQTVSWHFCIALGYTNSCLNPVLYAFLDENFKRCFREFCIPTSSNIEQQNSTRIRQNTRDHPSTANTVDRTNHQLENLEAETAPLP

Broadly, the IC50 is the point on the concentration scale where inhibition reaches its midpoint. A lower IC50 goes with inhibition by little substance. In the case of `COC(=O)CN1C(=O)C2(CCN(Cc3ccc(-c4ccccc4)cc3)CC2)c2ccccc21`, the IC50 at Nociceptin receptor [1] was determined as 10 µM.

Regarding `COC(=O)CN1C(=O)C2(CCN(CC3CCCCCCC3)CC2)c2ccccc21`, in assay [2], the IC50 is above 10 µM.

On to `O=C1N(CC2CO2)c2ccccc2C12CCN(CC1CCCCCCC1)CC2` (centres undefined), for which the IC50 in assay [2] was above 10 µM.

`COC(=O)CN1C(=O)C2(CCN(C(=O)CCC(=O)c3ccccc3)CC2)c2ccccc21` displayed an IC50 at Nociceptin receptor [1] above 10 µM.

As to `O=C1N(CC(O)CNCCN2CCOCC2)c2ccccc2C12CCN(CC1CCCCCCC1)CC2` (centres undefined), the IC50 in assay [2] is above 10 µM.

Molecule `O=C1N(Cc2ccccc2)c2ccccc2C12CCN(CC1CCCCCCC1)CC2` returned an IC50 in assay [2] above 10 µM.

As usually defined, the inhibition is the change of the read-out against control, counted positive when it falls. `O=C1Nc2ccccc2C12CCN(CC1CCCCCCC1)CC2`: the inhibition on Nociceptin receptor [3] stood at 45%. Further, the IC50 in assay [2] was above 10 µM.

For `COC(=O)CN1C(=O)C2(CCN(C(C)c3ccccc3)CC2)c2ccccc21` (centres undefined), the IC50 at Nociceptin receptor [1] worked out at 10 µM.

In assay [2], `COc1ccc2c(c1)N(C)C(=O)C21CCN(CC2CCCCCCC2)CC1` yielded an IC50 above 10 µM.

Turning to `Cc1ccc2c(c1)N(C)C(=O)C21CCN(CC2CCCCCCC2)CC1`, the inhibition at Nociceptin receptor [3] is 48%.

For the molecule `CC(=O)OCCN1C(=O)C2(CCN(CC3CCCCCCC3)CC2)c2ccccc21`, the IC50 in assay [2] is above 10 µM.

In turn, `CCN(Cc1ccc(C)cc1)CC(O)CN1C(=O)C2(CCN(CC3CCCCCCC3)CC2)c2ccccc21` (centres undefined) had an IC50 in assay [2] above 10 µM.

For `CCCCCCC(CCCC)CN1CCC2(CC1)C(=O)N(CC(=O)OC)c1ccccc12` (centres undefined), the IC50 at Nociceptin receptor [1] stood at 10 µM.

At Nociceptin receptor [1], `COC(=O)CN1C(=O)C2(CCN(c3ccc4c5c(cccc35)CC4)CC2)c2ccccc21` returned a 50% inhibitory concentration (IC50) of 0.35 µM.

As for `COC(=O)CN1C(=O)C2(CCN(Cc3ccccc3-c3ccsc3)CC2)c2ccccc21`, the IC50 at Nociceptin receptor [1] was found to be 10 µM.

`COC(=O)CN1C(=O)C2(CCN(C(=O)C3CCC(OC)CC3)CC2)c2ccccc21` (centres undefined) displayed an IC50 on Nociceptin receptor [1] above 10 µM.

With `O=C(O)CN1C(=O)C2(CCN(CC3CCCCCCC3)CC2)c2ccccc21`, the IC50 at Nociceptin receptor [1] (hek293) is below 10 µM.

`CCN1C(=O)C2(CCN(CC3CCCCCCC3)CC2)c2ccc(OC)cc21` yielded an IC50 in assay [2] above 10 µM.

As for `COc1ccc2c(c1)N(CC1CC1)C(=O)C21CCN(CC2CCCCCCC2)CC1`, the IC50 on Nociceptin receptor [1] is above 10 µM; in assay [4], above 10 µM; on Mu-type opioid receptor it was 10 µM; in assay [2], above 10 µM.

In assay [2], `Cc1ccc2c(c1)C1(CCN(CC3CCCCCCC3)CC1)C(=O)N2C` showed an IC50 of 9.4 µM.

As for `CC(C)c1ccc2c(c1)C1(CCN(CC3CCCCCCC3)CC1)C(=O)N2C`, the concentration for half-maximal inhibition (IC50) in assay [2] was above 10 µM.

For the molecule `CN1C(=O)C2(CCN(CC3CCCCCCC3)CC2)c2ccccc21`, the IC50 in assay [2] was above 10 µM.

As for `CN1C(=O)C2(CCN(CC3CCCCCCC3)CC2)c2cc(F)ccc21`, the inhibition at Nociceptin receptor [3] came to 66%.

Take `Cc1cccc2c1C1(CCN(CC3CCCCCCC3)CC1)C(=O)N2C`: the inhibition on Nociceptin receptor [3] worked out at 81%. In assay [2], this molecule gave an IC50 above 10 µM.
